Where two headings read alike, the source gives them in different places.
Legend:
ASK1/MAP3K5 = ASK1/MAP3K5 (Homo sapiens (Human), UniProt Q99683); assay: Enzyme activity: ASK1 kinase 33P-ATP filter-binding assay with MBP substrate; assay type: biochemical
Procedure: Experimental Example 1: Enzyme Activity
Primary reaction buffer solution: 20 mM Hepes (pH 7.5), 10 mM MgCl2, 1 mM EGTA, 0.02% Brij35, 0.02 mg/ml BSA, 0.1 mM Na3VO4, 2 mM DTT, 1% DMSO
Treatment of the Compound:
The tested compounds were formulated into a 10 mM stock solution in DMSO, diluted in 3-fold gradient for a total of 10 concentrations, and placed in a 384-well plate (Cyclic Olefin Copolymer LDV Echo®).
Kinase Name: ASK1/MAP3K5 (Invitrogen, Carlsbad, Calif.)
Type: Recombinant Human Full Length Protein, GST-tagged
Final reaction concentration of the enzyme: 20 nM
Substrate: Myelin basic protein, MBP (Active Motif, Carlsbad, Calif.)
Final reaction concentration of the substrate: 20 μM
1. The substrate was dissolved in a freshly prepared primary reaction buffer solution,
2. The desired coenzyme factor was added to the above substrate solution,
3. The kinase was added to the substrate solution and mix gently,
4. The solution tested compound in DMSO was added to the kinase reaction solution and incubated at room temperature for 20 minutes.
5. The reaction was initiated by adding ^33P-ATP (specific activity 10 μCi/μL) to the reaction solution.
6. Incubated at room temperature for 2 hours.
7. A small portion of the reactants were placed onto the P-81 ion exchange filter paper.
8. The filter paper was washed three times with 0.75% phosphate buffer to wash away unbound phosphate, and then dried.
9. The radioactivity remaining on the filter paper was determined,
10. The data for the kinase activity was expressed as the ratio of the kinase activity remaining in the test sample to the kinase activity in the vehicle (DMSO).
11. IC50 values and curve fitting were collected by Prism (GraphPad software).

[1] = Pharmacokinetic characteristics study in mice (plasma, LC-MS/MS); assay type: in vivo; settings: C57BL/6 male mice
Procedure: Experimental Example 2: Pharmacokinetic Characteristics Study
C57BL/6 male mice were used in this study. The drug concentration in the plasma of mice subjected to intravenous or oral administration of the test compound at different time points were quantitatively determine by LC/MS/MS method, respectively, in order to evaluate the pharmacokinetic characteristics of the tested drugs in mice.
A clear solution of the test compound was injected into C57BL/6 mice via the tail vein (overnight fasting, 7-10 weeks old), and the test compound was intragastrically administered to C57BL/6 mice (overnight fasting, 7-10 weeks old). 30 μL of the blood was collected from the jugular vein or the tail vein of the animals 0.0833, 0.25, 0.5, 1, 2, 4, 6, 8 and 24 hours after administration, and placed in the anticoagulant tube containing EDTA-K2, followed by centrifugation at 4° C. for 15 minutes to collect the plasma. The plasma concentration was determined by LC-MS/MS. The pharmacokinetic parameters were calculated by the non-compartment model linear logarithmic trapezoidal method using WinNonlin™ Version 6.3 (Pharsight, Mountain View, Calif.) pharmacokinetic software.

[2] = ASK1 enzyme activity, class symbols, read-out: IC50 value
[3] = recombinant human full length GST-tagged ASK1 20 nM, MBP 20 μM, 33P-ATP, 2 hours room temperature, read-out: IC50

Chain of ASK1/MAP3K5 (Q99683 whole entry): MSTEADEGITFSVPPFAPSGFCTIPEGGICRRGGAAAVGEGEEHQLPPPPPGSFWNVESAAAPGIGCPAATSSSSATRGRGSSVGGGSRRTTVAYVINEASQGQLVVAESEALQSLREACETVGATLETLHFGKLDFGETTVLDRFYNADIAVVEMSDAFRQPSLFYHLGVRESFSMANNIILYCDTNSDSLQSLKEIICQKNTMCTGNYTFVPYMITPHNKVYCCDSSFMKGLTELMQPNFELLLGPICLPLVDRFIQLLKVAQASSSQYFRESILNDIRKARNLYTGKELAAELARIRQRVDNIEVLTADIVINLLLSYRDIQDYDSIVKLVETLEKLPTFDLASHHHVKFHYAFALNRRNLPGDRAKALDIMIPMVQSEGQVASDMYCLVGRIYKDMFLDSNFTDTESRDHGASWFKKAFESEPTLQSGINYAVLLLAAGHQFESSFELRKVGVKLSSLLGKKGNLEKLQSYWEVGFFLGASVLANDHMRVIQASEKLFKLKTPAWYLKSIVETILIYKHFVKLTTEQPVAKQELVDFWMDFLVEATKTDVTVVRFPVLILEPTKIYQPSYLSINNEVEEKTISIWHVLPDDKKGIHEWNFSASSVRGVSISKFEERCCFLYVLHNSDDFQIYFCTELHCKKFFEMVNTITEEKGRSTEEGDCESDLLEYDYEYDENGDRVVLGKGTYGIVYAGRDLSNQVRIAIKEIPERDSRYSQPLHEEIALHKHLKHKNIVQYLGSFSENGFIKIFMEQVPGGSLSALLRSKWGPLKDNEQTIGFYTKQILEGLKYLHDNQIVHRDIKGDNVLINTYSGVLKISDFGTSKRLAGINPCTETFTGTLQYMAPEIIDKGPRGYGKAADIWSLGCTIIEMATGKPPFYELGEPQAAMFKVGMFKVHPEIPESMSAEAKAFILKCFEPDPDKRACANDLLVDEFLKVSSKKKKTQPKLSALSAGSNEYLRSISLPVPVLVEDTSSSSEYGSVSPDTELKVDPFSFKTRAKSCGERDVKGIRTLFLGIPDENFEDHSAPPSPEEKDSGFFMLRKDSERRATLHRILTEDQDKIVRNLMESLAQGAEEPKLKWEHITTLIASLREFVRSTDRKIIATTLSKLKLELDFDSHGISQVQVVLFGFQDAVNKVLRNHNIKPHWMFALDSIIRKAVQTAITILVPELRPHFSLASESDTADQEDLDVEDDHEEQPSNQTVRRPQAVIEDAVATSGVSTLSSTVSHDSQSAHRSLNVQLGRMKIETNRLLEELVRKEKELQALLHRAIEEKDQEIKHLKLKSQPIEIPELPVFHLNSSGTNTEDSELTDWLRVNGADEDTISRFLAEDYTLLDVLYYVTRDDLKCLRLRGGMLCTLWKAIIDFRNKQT

Cc1cc(F)c(C(=O)Nc2cccc(-c3nnc4n3CCC4)n2)cc1-n1cnc(C2CC2)c1 [WX001]
IC50 (ASK1/MAP3K5; [2]): ≤ 100 nM
IC50 (ASK1/MAP3K5; [3]): 1.82 nM

Cc1cc(F)c(C(=O)Nc2cccc(-c3nnc4n3CCCC4)n2)cc1-n1cnc(C2CC2)c1 [WX002]
Exposure ([1]; intravenous or oral (intragastric) administration): 408.566 µM·h
bioavailability ([1]; mouse, intragastric vs intravenous administration): 156%
IC50 (ASK1/MAP3K5; [2]): ≤ 100 nM
IC50 (ASK1/MAP3K5; [3]): 5.6 nM

Cc1cc(F)c(C(=O)Nc2cccc(-c3nnc4n3CCCC4)n2)cc1-n1cc(C2CC2)nn1 [WX003]
IC50 (ASK1/MAP3K5; [2]): > 100 nM
IC50 (ASK1/MAP3K5; [3]): 943 nM

Cc1cc(F)c(C(=O)Nc2cccc(-c3nnc4n3CCCC4)n2)cc1-n1nnc(C2CC2)n1 [WX004]
IC50 (ASK1/MAP3K5; [2]): > 100 nM
IC50 (ASK1/MAP3K5; [3]): > 1000 nM

Cc1cc(F)c(C(=O)Nc2cccc(-c3nnc4n3CCCC4)n2)cc1-n1cnc(C2CC2)n1 [WX005]
IC50 (ASK1/MAP3K5; [2]): ≤ 100 nM
IC50 (ASK1/MAP3K5; [3]): 35.3 nM

O=C(Nc1cccc(-c2nnc3n2CCCC3)n1)c1cc(-n2cnc(C3CC3)c2)c(-c2cccnc2)cc1F [WX006]
IC50 (ASK1/MAP3K5; [3]): 19.2 nM

COCCOc1cc(F)c(C(=O)Nc2cccc(-c3nnc4n3CCCC4)n2)cc1-n1cnc(C2CC2)c1 [WX007]
IC50 (ASK1/MAP3K5; [3]): 16.6 nM

O=C(Nc1cccc(-c2nnc3n2CCCC3)n1)c1cc(-n2cnc(C3CC3)c2)c(O)cc1F [WX008]
IC50 (ASK1/MAP3K5; [3]): 5.44 nM

CC1(COc2cc(F)c(C(=O)Nc3cccc(-c4nnc5n4CCCC5)n3)cc2-n2cnc(C3CC3)c2)COC1 [WX010]
IC50 (ASK1/MAP3K5; [3]): 7.2 nM

O=C(Nc1cccc(-c2nnc3n2CCCC3)n1)c1cc(-n2cnc(C3CC3)c2)c(OCC2COC2)cc1F [WX011]
IC50 (ASK1/MAP3K5; [3]): 7.61 nM

O=C(Nc1cccc(-c2nnc3n2CCCC3)n1)c1cc(-n2cnc(C3CC3)c2)c(OCCF)cc1F [WX012]
IC50 (ASK1/MAP3K5; [3]): 7.04 nM

O=C(Nc1cccc(-c2nnc3n2CCCC3)n1)c1cc(-n2cnc(C3CC3)c2)c(OCCCF)cc1F [WX013]
IC50 (ASK1/MAP3K5; [3]): 7.93 nM

CN(C)c1cc(F)c(C(=O)Nc2cccc(-c3nnc4n3CCCC4)n2)cc1-n1cnc(C2CC2)c1 [WX014]
IC50 (ASK1/MAP3K5; [3]): 10.7 nM

O=C(Nc1cccc(-c2nnc3n2CCCC3)n1)c1cc(-n2cnc(C3CC3)c2)c(N2CCOCC2)cc1F [WX015]
IC50 (ASK1/MAP3K5; [3]): 10.1 nM

Cc1cc(F)c(C(=O)Nc2cccc(-c3nnc4n3CCCC4O)n2)cc1-n1cnc(C2CC2)c1 (stereo not shown) [WX016]
IC50 (ASK1/MAP3K5; [3]): 4.12 nM

Reference: patent US11040968B2, “Pyridine derivative as ASK1 inhibitor and preparation method and use thereof” (FUJIAN COSUNTER PHARMACEUTICAL CO., LTD., priority 2017, dated 2021)
